Key:
Collies [1] = conditions: cited from earlier work
Collies [2] = assay: Loperamide neurotoxicity in Collies; type: in vivo, dogs; conditions: one Collie of the study, homozygous for the mutant allele, treated with an appropriate dose as a puppy
Text: Determination of the genotype of Collies is important clinically for several reasons. […] The dog tested homozygous for the mutant allele.

Collies [3] = conditions: Collies vs Beagles, one study; cited from earlier work
Collies [4] = assay: Ivermectin sensitivity (signs of neurotoxicosis) in Collies by mdr1 genotype; type: in vivo, dogs; conditions: oral 120 μg/kg
Method: Blood samples (8 ml) were obtained by jugular venipuncture from each of 13 clinically healthy Collies (Wil-O-Lane Kennels, Allegan, Mich.). […] Each dog was identified by an ear tattoo and housed in a run measuring 4×8 feet with metal walls and a raised, coated, metal screen floor. Facilities exceeded the minimal requirement specified by USDA guidelines.
We took advantage of a well-defined population of ivermectin-sensitive and non-sensitive Collies (Paul et al., Amer. J. Vet. Res. 61:482-483, 2000: Fassler et al., J. Am. Vet. Med. Assoc. 199:457-460, 1991). […] Clinical signs of neurotoxicity that were evaluated include apparent depression, ataxia, mydriasis, salivation, or drooling (Paul et al., Amer. J. Vet. Res. 61:482-483, 2000). Semi-quantitative reverse transcriptase PCR analysis was conducted on RNA isolated from ivermectin-sensitive and non-sensitive Collies to determine if mdr1 expression is lower in sensitive Collies than in non-sensitive Collies. Amplification of a 229-bp product of the canine glyceraldehyde 3-phosphate dehydrogenase (GAPDH) gene was used as an internal standard to control for variability in reverse transcriptase and PCR reactions.

Row | Molecule | concentration in brain tissue (Collies [1]; affected Collies) | neurotoxicity in Collies (Collies [1]; doses routinely used in other breeds) | neurologic toxicity (Collies [2]) | fraction of the lethal dose of ivermectin for Beagles that was lethal for Collies (Collies [3]) | ivermectin sensitivity (neurotoxicity) (Collies [4]; Collies heterozygous (normal/mutant) or homozygous normal) | ivermectin sensitivity (neurotoxicity) (Collies [4]; Collies homozygous for the mdr1 deletion (mutant/mutant))
1 | CN(C)C(=O)C(CCN1CCC(O)(c2ccc(Cl)cc2)CC1)(c1ccccc1)c1ccccc1 [loperamide, Loperamide] | high concentrations in brain tissue | cause neurotoxicity | severe (nearly fatal) neurologic toxicity | – | – | –
2 | Ivermectin | – | – | – | 1/200 | not sensitive to ivermectin neurotoxicity | exhibit ivermectin sensitivity

Source: US6790621B2 (Washington State University Research Foundation, priority 2001, dated 2004)
